Assay [1] deals with rabbit kidney ATPase. The experiment in a line: ATPase activity assay, specificity panel. The format is biochemical. Particulars: highest used inhibitor concentration 136 μM, read-out: Concentration causing 50% inhibition of enzymatic activity (C50). On the procedure:
(§1) One such ATPase assay is described in the examples below. In one preferred embodiment, the ATPase activity assay utilizes 0.3 M PCA (perchloric acid) and malachite green reagent (8.27 mM sodium molybdate II, 0.33 mM malachite green oxalate, and 0.8 mM Triton X-100). To perform the assay, 10 μL of reaction is quenched in 90 μl of cold 0.3 M PCA. Phosphate standards are used so data can be converted to mM inorganic phosphate released.
(§2) When all reactions and standards have been quenched in PCA, 100 μl of malachite green reagent is added to the to relevant wells in e.g., a microtiter plate. The mixture is developed for 10-15 minutes and the plate is read at an absorbance of 650 nm. If phosphate standards were used, absorbance readings can be converted to mM Pi and plotted over time.
(§3) […]

Assay [2] concerns the target Myosin II (EDTA). The experiment in a line: ATPase activity assay, specificity panel (EDTA activated ATPase). The assay is classed as biochemical. As to conditions: read-out: Concentration causing 50% inhibition of enzymatic activity (C50). As for the experimental part: as §1, §2, §3
Assay [3] concerns the target TI-γ. The experiment in a line: ATPase activity assay, specificity panel. The assay is classed as biochemical, Thermomyces lanuginosus. Particulars: at 2 μM tubulin, read-out: Concentration causing 50% inhibition of enzymatic activity (C50). As for the experimental part: as §1, §2
TI-γ (a kinesin superfamily member from the fungus Thermomyces lanuginosus) was adsorbed to a glass coverslip and supplemented with a mixture of microtubules, 2 mM Mg-ATP, and sponge extracts in DMSO (5% final concentration). Motility was scored visually on a Zeiss Axioplan microscope sat up for DIC and fitted with an Argus 10 video processor (Hamamatsu).
Initial rate measurements were done at room temperature using a malachite green assay (Geladopoulos et al. (1991) Anal. Biochem., 192: 112-116) modified to work in 96 well microtiter plates and scored on a plate reader at 650 nm. […]

Assay [4] deals with T1, microtubule stimulated ATPase of kinesin (Drosophila melanogaster, UniProt P17210).
T1 construct: kinesin heavy chain fragment containing amino acids 5-351 of the wild type protein; hexahistidine (C); made in house; host or cells: bacterial cells (IPTG induced)
T1 sequence (P17210 5-351): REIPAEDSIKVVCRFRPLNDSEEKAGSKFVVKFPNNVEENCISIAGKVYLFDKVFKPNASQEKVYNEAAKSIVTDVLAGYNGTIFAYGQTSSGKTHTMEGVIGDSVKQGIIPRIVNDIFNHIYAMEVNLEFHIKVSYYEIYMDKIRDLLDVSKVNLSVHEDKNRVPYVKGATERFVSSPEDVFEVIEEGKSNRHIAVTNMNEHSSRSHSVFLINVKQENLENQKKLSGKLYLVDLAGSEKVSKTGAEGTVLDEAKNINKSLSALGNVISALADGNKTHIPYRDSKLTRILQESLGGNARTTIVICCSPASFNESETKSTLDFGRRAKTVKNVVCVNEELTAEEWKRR
The experiment in a line: Microtubule-stimulated kinesin ATPase, steady state kinetics. The format is biochemical. On the procedure:
(§4) All kinetic and binding measurements were performed on a bacterially expressed Drosophila kinesin heavy chain fragment containing amino acids 5-351 of the wild type protein and a hexahistidine tag at the C-terminus. Protein was purified from the soluble fraction of IPTG induced bacterial cells by a single round of affinity chromatography on Ni—NTA-agarose (Qiagen), concentrated by microfiltration, and frozen in small aliquots in liquid nitrogen.
(§5) Initial rate measurements were done at room temperature using a malachite green assay (Geladopoulos et al. (1991) Anal. Biochem., 192: 112-116) modified to work in 96 well microtiter plates and scored on a plate reader at 650 nm. ATP concentration dependence and basal ATPase rate were determined by a coupled enzymatic assay with pyruvate kinase and lactate dehydrogenase monitoring changes in absorbance at 340 nm. Phosphate standards (650 μM-7 μM) were included with each reading.
Extracts from 268 marine sponges were initially tested for their ability to disrupt normal behavior of microtubules in a gliding motility assay. This screening method allowed immediate distinction between substances that affected microtubule movement and those that caused microtubule depolymerization or breakage. Active extracts from the initial screening were then tested for inhibition of the microtubule-stimulated kinesin ATPase.

The target in assay [5] is T2, kinesin binding to microtubules (Drosophila melanogaster, UniProt P17210).
T2 construct: kinesin heavy chain fragment containing amino acids 5-351 of the wild type protein; hexahistidine (C); made in house; host or cells: bacterial cells (IPTG induced)
T2 sequence (P17210 5-351): T1 sequence (P17210 5-351)
The experiment in a line: Kinesin-microtubule co-sedimentation assay with AMP-PNP. Particulars: co-sedimentation in the presence of AMP-PNP. As for the experimental part:
as §4
This was tested by performing a kinesin-microtubule co-sedimentation assay in the presence of a nonhydrolysable ATP analog, AMP-PNP, with or without adociasulfate.

Assay [6] addresses T3, basal kinesin ATPase (Drosophila melanogaster, UniProt P17210).
T3 construct: kinesin heavy chain fragment containing amino acids 5-351 of the wild type protein; hexahistidine (C); made in house; host or cells: bacterial cells (IPTG induced)
T3 sequence (P17210 5-351): T1 sequence (P17210 5-351)
The experiment in a line: Basal (non microtubule-stimulated) kinesin ATPase rate, coupled enzymatic assay. The format is biochemical. Particulars: absence of microtubules; up to 136 μM (the highest tested). As for the experimental part:
as §4, §5
In contrast, varying the ATP concentration had no effect on the overall shape of the kinetic curves. […] An additional argument against adociasulfate binding at the nucleotide pocket comes from the lack of an inhibitory effect on the basal, non microtubule-stimulated rate of the kinesin ATPases. If adociasulfate interfered with nucleotide binding, or locked the enzyme in a particular nucleotide-bound state, ATP turnover in the absence of microtubule should be decreased.

The target of assay [7] is T4, kinesin (K-ADP state) (Drosophila melanogaster, UniProt P17210).
T4 construct: kinesin heavy chain fragment containing amino acids 5-351 of the wild type protein; hexahistidine (C); made in house; host or cells: bacterial cells (IPTG induced)
T4 sequence (P17210 5-351): T1 sequence (P17210 5-351)
The experiment in a line: ADP release from kinesin. The assay is classed as biochemical. As to conditions: varying concentrations of adociasulfate. On the procedure:
as §4
The percent of ADP released from the enzyme was determined by the methods of Hackney (see, e.g., Hackney (1994) J. Biol. Chem., […]: 16508-16511). Briefly, 80 μM kinesin was preincubated with α-^32PATP at room temperature for 15 min and than stored on ice. 1 μl aliquots of that mixture were diluted into 100 μl of “chase mix” containing 0.5 mg/ml pyruvate kinase, 2 mM phosphoenalpyruvate, and varying concentrations of adociasulfate. […] The amount of ADP that became accessible to pyruvate kinase and was converted to ATP was determined by a thin layer chromatography on PEI-cellulose followed by phosphoimager quantitation.
Microtubule binding to kinesin induced 1,000-fold stimulation of the basal ATPase rate, owing primarily to accelerated ADP release. […] The adociasulfate concentration at 50% of maximum burst is much higher than the K1 determined in steady state microtubule competition assays. […]

On to `CC1(C)CCC[C@]2(C)O[C@H]3CC[C@@]4(C)[C@@H](CC[C@]5(C)[C@@H]4CC[C@]4(C)c6c(OS(=O)(=O)O)ccc(OS(=O)(=O)O)c6C[C@@H]54)[C@]3(C)CC[C@@H]12` [adociasulfate], for which the IC50 in assay [1] was greater than 136 µM; in assay [2], 75 µM; in assay [3], 2000 nM. For the same compound, the Mode of inhibition entry in assay [4] (steady state kinetic measurements, varying microtubule concentration) is “competitive with microtubules”. In addition, the Vmax result in assay [4] (varying ATP concentration, higher adociasulfate concentrations) is recorded as “progressively lower”. Besides, in assay [5], the “Effect on binding of kinesin to microtubules” value is recorded as “abolished binding of kinesin to microtubules”. In assay [6], the “Effect on basal ATPase rate” value is given as “did not inhibit the basal ATPase rate”. Besides, the “ADP release from kinesin” value in assay [7] is reported as “bursts of ADP release were observed”.

Source of the values: patent US7252950B1, “Assays for detecting modulators of cytoskeletal function” (priority 1997, dated 2007).
